# Data as given in patent publication US20260234136A1, “ISOXAZOLIDINES AS RIPK1 INHIBITORS AND USE THEREOF” (GENZYME CORPORATION, priority 2023, published 2026).
# Assays:
# U937 cells = experiment: Cellular assay in U937 cells to measure the activity of RIPK1-inhibitors on cell death (necroptosis); format: cell-based; details: Homo sapiens, U-937, 50 μM zVAD.fmk and 100 ng/ml recombinant human TNFα, overnight (18 to 24 hrs), MTS readout
# physchem = details: 50 mM phosphate buffer, 25 °C, pH 7.4, aqueous buffer, thermodynamic from solid
solubility at 16 h (physchem),SMILES,IC50 (U937 cells)
> 1170 µM,"Cc1nc([C@@H]2CCON2C(=O)C2CCN(c3nccc(N4CCCC4=O)n3)CC2)co1 [Example 95, 1-[2-[4-[(3S)-3-(2-methyl-1,3-oxazol-4-yl)-1,2-oxazolidine-2-carbonyl]piperidin-1-yl]pyrimidin-4-yl]pyrrolidin-2-one]",26 nM
> 1030 µM,"CO[C@@H]1CCCN(c2ccnc(N3CCC(C(=O)N4OCC[C@H]4c4cncc(F)c4)CC3)n2)C1=O [Example 96, (3R)-1-[2-[4-[(3S)-3-(5-fluoropyridin-3-yl)-1,2-oxazolidine-2-carbonyl]piperidin-1-yl]pyrimidin-4-yl]-3-methoxypiperidin-2-one]",149 nM
> 1030 µM,"CO[C@H]1CCCN(c2ccnc(N3CCC(C(=O)N4OCC[C@H]4c4cncc(F)c4)CC3)n2)C1=O [Example 97, (3S)-1-[2-[4-[(3S)-3-(5-fluoropyridin-3-yl)-1,2-oxazolidine-2-carbonyl]piperidin-1-yl]pyrimidin-4-yl]-3-methoxypiperidin-2-one]",86 nM
> 1070 µM,"Cc1ncc([C@@H]2CCON2C(=O)C2CCN(c3nccc(-c4cc(N)nn4C)n3)CC2)cc1F [Example 102, [1-[4-(5-amino-2-methylpyrazol-3-yl)pyrimidin-2-yl]piperidin-4-yl]-[(3S)-3-(5-fluoro-6-methylpyridin-3-yl)-1,2-oxazolidin-2-yl]methanone]",1 nM

# Continued, compound first:
SMILES,solubility at 16 h (physchem),IC50 (U937 cells)
"O=C1CCCN1c1ccnc(N2CC[C@@H](C(=O)N3OCC[C@H]3c3cnccn3)C3(CC3)C2)n1 [Example 100, 1-[2-[(8R)-8-[(3S)-3-pyrazin-2-yl-1,2-oxazolidine-2-carbonyl]-5-azaspiro[2.5]octan-5-yl]pyrimidin-4-yl]pyrrolidin-2-one]",269 µM,12 nM
"Cc1cncc([C@@H]2CCON2C(=O)C2CCN(c3ncc(F)c(N4CCC5(CC5)C4=O)n3)CC2)c1 [Example 103, 5-[5-fluoro-2-[4-[(3S)-3-(5-methylpyridin-3-yl)-1,2-oxazolidine-2-carbonyl]piperidin-1-yl]pyrimidin-4-yl]-5-azaspiro[2.4]heptan-4-one]",> 1040 µM,6 nM
"O=C(C1CCN(c2ncc(F)c(N3CCC4(CC4)C3=O)n2)CC1)N1OCC[C@H]1c1cncc(F)c1 [Example 104, 5-[5-fluoro-2-[4-[(3S)-3-(5-fluoropyridin-3-yl)-1,2-oxazolidine-2-carbonyl]piperidin-1-yl]pyrimidin-4-yl]-5-azaspiro[2.4]heptan-4-one]",> 1030 µM,2 nM
